In ChEMBL document CHEMBL2074075, “Functional assay of multidrug resistant cells using JC-1, a carbocyanine fluorescent probe” (Leukemia, 1997):

Columns and labels:
[1] = target: T1, ATP-dependent translocase ABCB1 (Homo sapiens, UniProt P08183); test: TP_TRANSPORTER: inhibition of JC-1 uptake (JC-1: ca 0.1 uM, S9788: 5 uM) in K562 and K562/ADR cells, flow cytometry; format: functional, cell-based
[2] = target: T1, ATP-dependent translocase ABCB1; test: TP_TRANSPORTER: spectrofluorimetric analysis (intracellular accumulation) in K562 and K562/ADR cells; format: functional, cell-based

T1 sequence (P08183 whole entry): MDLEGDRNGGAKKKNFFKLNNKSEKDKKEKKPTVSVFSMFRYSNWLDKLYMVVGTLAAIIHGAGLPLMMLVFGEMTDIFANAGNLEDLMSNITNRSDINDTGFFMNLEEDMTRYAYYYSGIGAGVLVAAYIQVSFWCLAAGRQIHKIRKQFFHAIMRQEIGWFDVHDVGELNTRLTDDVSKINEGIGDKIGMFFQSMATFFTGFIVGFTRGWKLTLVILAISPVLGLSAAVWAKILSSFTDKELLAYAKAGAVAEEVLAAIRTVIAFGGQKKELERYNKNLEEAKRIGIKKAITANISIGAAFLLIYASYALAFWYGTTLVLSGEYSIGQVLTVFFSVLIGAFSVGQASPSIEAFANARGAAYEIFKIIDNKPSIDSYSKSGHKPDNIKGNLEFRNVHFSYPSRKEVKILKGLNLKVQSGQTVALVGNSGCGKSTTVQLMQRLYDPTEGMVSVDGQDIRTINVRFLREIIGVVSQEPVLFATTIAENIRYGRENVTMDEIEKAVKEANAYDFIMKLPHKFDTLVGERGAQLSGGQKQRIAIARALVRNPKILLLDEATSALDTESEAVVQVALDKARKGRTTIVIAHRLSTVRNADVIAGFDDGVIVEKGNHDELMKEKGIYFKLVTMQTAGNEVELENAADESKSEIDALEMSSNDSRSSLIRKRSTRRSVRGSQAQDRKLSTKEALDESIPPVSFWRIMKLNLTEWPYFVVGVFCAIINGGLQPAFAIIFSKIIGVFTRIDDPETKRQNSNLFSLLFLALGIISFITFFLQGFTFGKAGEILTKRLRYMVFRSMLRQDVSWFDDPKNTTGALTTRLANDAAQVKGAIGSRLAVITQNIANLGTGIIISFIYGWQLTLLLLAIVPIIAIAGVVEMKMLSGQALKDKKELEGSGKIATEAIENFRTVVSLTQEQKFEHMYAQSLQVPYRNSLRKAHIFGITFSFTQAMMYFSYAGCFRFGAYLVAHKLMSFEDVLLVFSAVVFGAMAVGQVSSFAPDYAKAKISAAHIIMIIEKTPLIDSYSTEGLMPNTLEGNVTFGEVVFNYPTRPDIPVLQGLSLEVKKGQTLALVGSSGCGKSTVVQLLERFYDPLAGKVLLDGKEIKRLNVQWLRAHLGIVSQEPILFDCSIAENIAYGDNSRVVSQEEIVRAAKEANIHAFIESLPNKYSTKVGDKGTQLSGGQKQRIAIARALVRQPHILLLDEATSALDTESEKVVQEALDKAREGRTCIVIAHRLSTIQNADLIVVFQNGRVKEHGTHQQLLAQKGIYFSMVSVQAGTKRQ

Row | Activity [1] | Activity [2] | Structure (SMILES)
1 | inhibitor [+] | – | C=CCNc1nc(NCC=C)nc(N2CCC(NCC(c3ccc(F)cc3)c3ccc(F)cc3)CC2)n1
2 | – | substrate [+] | CCN1C(=C/C=C/c2n(CC)c3cc(Cl)c(Cl)cc3[n+]2CC)N(CC)c2cc(Cl)c(Cl)cc21.[I-]
